Experimental data taken from patent publication US10273208B2, “Screening methods for the binding affinity of chemical entities to biological molecules and NEDD4-1 inhibitors identified by the screening methods” (Northwestern University, priority 2014, dated 2019).
“Also recorded” adds a separate entry of the source.

Key:
NEDD4-1 HECT domain [1] = molecular target: T1, NEDD4-1 HECT domain (Homo sapiens, UniProt P46934); assay: In vitro ubiquitination assays; assay type: biochemical; conditions: NEDD4-1 HECT pretreated with 1 mM compound for 3 h, quenched after 5 min
T1 construct: to elute NEDD4-1 HECT domain (50 mM HEPES, 150 mM NaCl, 0.1 mM EDTA 1 mM DTT); GST (N, cleaved yes); made in house; host or cells: E. coli BL21
T1 sequence (P46934 with tags, fused parts or gaps): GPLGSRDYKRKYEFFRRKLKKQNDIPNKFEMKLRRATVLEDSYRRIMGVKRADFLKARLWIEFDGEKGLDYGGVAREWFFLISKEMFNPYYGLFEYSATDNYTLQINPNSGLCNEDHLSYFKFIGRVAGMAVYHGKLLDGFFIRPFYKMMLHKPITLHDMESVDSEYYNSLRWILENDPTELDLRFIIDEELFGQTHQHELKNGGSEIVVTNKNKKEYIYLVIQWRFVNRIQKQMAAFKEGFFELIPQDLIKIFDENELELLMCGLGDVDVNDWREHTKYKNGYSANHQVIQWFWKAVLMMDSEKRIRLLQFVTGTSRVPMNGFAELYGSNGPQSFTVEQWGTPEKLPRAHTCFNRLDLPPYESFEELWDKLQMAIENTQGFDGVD
Protocol: FIG. 15A, FIG. 15B and FIG. 15C. (FIG. 15A) Enzymatic assay with compounds 1, 2, and 4. NEDD4-1 HECT domain was pretreated with 1% DMSO (lane 1), or 1 mM of compounds 1 (lane 2), 2 (lane 3), or 4 (lane 4) for 3 h before beginning the assay. The reaction mixtures were quenched after 5 min, and polyubiquitin chains were detected by Western blot with anti-ubiquitin antibody. (FIG. 15B) Cartoon depiction of the crystal structure of NEDD4-1:1 with key side chains and the inhibitor shown as spheres. (FIG. 15C) Close-up view of the inhibitor-binding site with the key side chains depicted as sticks and colored by atom type. The 2FO-FC electron density map (mesh, contoured at 1.0 σ) is presented for Cys^627 and 1.
FIG. 16A, FIG. 16B, FIG. 16C and FIG. 16D. (FIG. 16A) and (FIG. 16B) Compound 6 disrupts the NEDD4-1:Ub interaction as shown by a fluorescence polarization assay. Mean±s.e.m., n=3. (FIG. 16C) Compound 6 inhibits the ability of NEDD4-1 to polyubiquitinate the Wbp2-C-K222 protein substrate. NEDD4-1 was pretreated with 1% DMSO (lane 1), or 100 μM of compound 6 (lane 2) or compound 4 (lane 3) for 1.5 h before beginning the assay. Reaction mixtures were quenched at the indicated times and the amount of ubiquitinated Wbp2-C-K222 was determined using in-gel fluorescence. (FIG. 16D) Quantification of polyubiquitin chains in FIG. 16B. Mean±s.e.m., n=2. […]

NEDD4-1 HECT domain [2] = molecular target: T1, NEDD4-1 HECT domain; assay: Covalent labeling of NEDD4-1 HECT domain (gel filtration, whole protein ESI-MS); assay type: binding
Protocol: 10 μM of NEDD4-1 HECT domain in 50 mM HEPES 150 mM NaCl 0.1 mM EDTA 1 mM DTT pH 7.5 was treated with a mixture of ten fragments (from 10 mM each DMSO stock solution mixtures; final concentrations: 100 μM of each fragment, and 1% DMSO). Fragment structures and mixture compositions were the same as reported previously. The reaction mixture was incubated for 4 h at 23° C. before being passed through Zeba gel filtration columns (Thermo, 7K MWCO) to remove unreacted fragments. The protein solution was then immediately analyzed by whole protein LC/ESI-MS.
Accurate-mass data were obtained on an Agilent 6210A LC-TOF mass spectrometer in positive ion mode using electrospray ionization. Samples were chromatographed on the LC-TOF instrument using a Poroshell 120 EC-C18 HPLC column (2.1*50 mm, 2.7 micron), an Agilent Series 1200 HPLC binary pump, and an Agilent Series 1200 autoinjector. The HPLC column was held at 45° C. and the autosampler was held at 8° C. Mobile Phase A was a solution of 0.1% formic acid in water:acetonitrile (19:1). Mobile Phase B was a solution of 0.1% formic acid in acetonitrile. The flow rate was set to 250 μL/min. The gradient used was 0% B for 2 minutes, ramping linearly to 90% B from 2 minutes to 5 minutes, holding at 90% B from 5 minutes to 7 minutes, and then returning to 0% B at 7.1 minutes. The column was allowed to equilibrate for 2.7 minutes before the next injection was initiated. The eluent from the column was diverted to waste for the first 2 minutes. The spectra were acquired from 301 to 3200 daltons using a gas temperature of 340° C., a gas flow of 7 liters/min, and the nebulizer gas at 35 psi. The following voltages were used: capillary 4200 V, fragmentor 230V, skimmer 64V, and octapole RF peak 250V. Spectra were acquired at a rate of 1 spectra/sec. The data was processed using MassHunter software version B.02.00. Maximum entropy deconvolutions were performed with a Mass Step of 1, S/N Threshold of 30, Average Mass at 90% of Peak Height, and 5 Charge States Minimum.
10 μM of NEDD4-1 HECT domain in 50 mM HEPES 150 mM NaCl 0.1 mM EDTA 1 mM DTT pH 7.5 was treated with 1 mM of inhibitor 1 or 2 (from 100 mM DMSO stock solution; final concentrations: 1 mM of inhibitor, 1% DMSO, and 0.2% CHAPS to solubilize the inhibitors at 1 mM). The reaction mixture was incubated for 4 h at 23° C. before being passed through Zeba gel filtration columns (Thermo, 7K MWCO) to remove unreacted inhibitor. The protein solution was then immediately used for crystallization or enzymatic assay.

[3] = molecular target: T2, NEDD4-1 HECT:ubiquitin-fluorescein interaction (Homo sapiens, UniProt P46934); assay: Fluorescence polarization assay of NEDD4-1:Ub binding; conditions: NEDD4-1 HECT 7.98 μM, ubiquitin-fluorescein 50 nM, 1 h
T2 construct: to elute NEDD4-1 HECT domain (50 mM HEPES, 150 mM NaCl, 0.1 mM EDTA 1 mM DTT); GST (N, cleaved yes); made in house; host or cells: E. coli BL21
T2 sequence (P46934 with tags, fused parts or gaps): T1 sequence (P46934 with tags, fused parts or gaps)
Protocol: NEDD4-1 HECT (7.98 μM) and ubiquitin-fluorescein (50 nM, Lifesensors) in 50 mM HEPES pH 7.5 150 mM NaCl 0.1 mM EDTA were treated with DMSO or varying concentrations of inhibitor in 1% DMSO in black 96 well plates. Changes in fluorescence polarization were monitored over 1 h with a Biotek Synergy 4 plate reader. Slopes of ln(polarization) vs. time were plotted with GraphPad Prism and used to determine the pseudo-first order rate contstant kobs for a given concentration of inhibitor. The values of kinact/KI for each inhibitor were then determined by fitting the kobs vs. [inhibitor] plot to the equation kobs=kinact*[inhibitor]/([inhibitor]+KI). All reactions were performed in triplicate and plotted as mean±s.e.m.

[4] = molecular target: T3, NEDD4-1 (~120 kDa band) in TC71 Ewing's sarcoma cells (Homo sapiens, UniProt P46934); assay: Cell-based selectivity studies with alkyne probe 15, click reaction, in-gel fluorescence; conditions: pretreatment 1 h, then 2 μM probe 15
T3 sequence (P46934 1-900 isoform P46934-4): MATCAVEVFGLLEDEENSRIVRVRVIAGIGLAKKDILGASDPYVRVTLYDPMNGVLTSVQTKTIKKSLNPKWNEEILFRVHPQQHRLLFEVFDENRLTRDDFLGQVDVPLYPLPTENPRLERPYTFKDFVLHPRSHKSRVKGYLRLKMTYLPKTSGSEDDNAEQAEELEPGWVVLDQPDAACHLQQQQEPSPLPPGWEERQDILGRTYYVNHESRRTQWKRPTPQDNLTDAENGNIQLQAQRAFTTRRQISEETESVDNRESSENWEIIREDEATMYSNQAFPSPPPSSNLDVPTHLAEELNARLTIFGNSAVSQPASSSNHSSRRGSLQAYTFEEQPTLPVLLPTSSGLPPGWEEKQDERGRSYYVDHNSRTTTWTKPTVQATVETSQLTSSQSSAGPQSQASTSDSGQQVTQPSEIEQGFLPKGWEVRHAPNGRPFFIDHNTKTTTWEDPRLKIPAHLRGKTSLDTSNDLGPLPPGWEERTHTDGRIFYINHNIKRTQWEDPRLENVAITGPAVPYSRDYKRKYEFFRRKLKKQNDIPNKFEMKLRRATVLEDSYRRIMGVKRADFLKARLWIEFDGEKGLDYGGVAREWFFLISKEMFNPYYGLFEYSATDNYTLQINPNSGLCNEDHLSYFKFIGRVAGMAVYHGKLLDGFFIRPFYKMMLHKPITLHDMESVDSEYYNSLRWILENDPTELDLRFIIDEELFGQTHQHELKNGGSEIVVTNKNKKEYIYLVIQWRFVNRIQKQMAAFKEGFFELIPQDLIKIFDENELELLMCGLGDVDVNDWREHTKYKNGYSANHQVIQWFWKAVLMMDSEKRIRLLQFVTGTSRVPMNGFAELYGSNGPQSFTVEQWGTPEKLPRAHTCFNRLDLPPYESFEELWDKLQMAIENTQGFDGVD
Protocol: We treated TC71 Ewing's sarcoma cells (NEDD4-1 positive),^[6b] with 2 μM of compound 15, followed by lysis, click reaction with rhodamine azide, and in-gel fluorescence.^[15]
TC71 cells were cultured in Iscove's Modified Dulbecco's Medium (IMDM), 20% (v/v) FBS, 4 mM glutamine, and lx ITS (5 μg/mL insulin, 5 μg/mL transferrin, 5 ng/mL selenous acid). Cells were grown to confluence in 6-well plates (9.6 cm^2 per well). The growth medium was aspirated off and replaced with 2 mL serum-free IMDM containing 0.1% DMSO or the indicated concentration of inhibitor in 0.1% DMSO. After 1 h incubation time at 37° C., cells were treated with 0.1% DMSO or 2 μM of probe 15 in 0.1% DMSO for an additional hour. […] Proteins were then resolved by SDS-PAGE 7.5% or 15% acrylamide gels, and subjected to in-gel scanning fluorescence imaging on the Typhoon 9400 at 610 nm excitation. The gel was then stained with Coomassie Brilliant Blue to visualize all proteins. Western blots were performed with anti-NEDD4-1 antibody from Cell Signaling (2740S).

With `COC(=O)/C=C/CNC(=O)c1c(C)n(C)c2ccc(OC)cc12` [Compound 1, Methyl(E)-4-(5-methoxy-1,2-dimethyl-1H-indole-3-carboxamido)but-2-enoate] the “polyubiquitin chain assembly by NEDD4-1 (anti-ubiquitin Western blot)” value (NEDD4-1 HECT domain [1]) was “defective at assembling polyubiquitin chains; also recorded: inhibition of polyubiquitization”, the “labeling of NEDD4-1” value (NEDD4-1 HECT domain [2]; compound 100 μM, NEDD4-1 10 μM, 4 h) was roughly 40% and the “labeling of NEDD4-1 HECT domain (qualitative)” value (NEDD4-1 HECT domain [2]; compound 100 μM, NEDD4-1 HECT 10 μM, 4 h) was “monolabel”. The “labeling of NEDD4-1 in the presence of ubiquitin” value (NEDD4-1 HECT domain [2]; compound 100 μM, NEDD4-1 HECT 10 μM, ubiquitin 60 μM, 4 h) was “completely inhibited”, the “modification of NEDD4-1 HECT domain at 1 mM” value (NEDD4-1 HECT domain [2]; compound 1 mM, 3-4 h) was “complete modification; also recorded: fully labels NEDD4-1 HECT domain after 3 h, with minor non-specific dilabeling” and the “covalent modification of NEDD4-1 HECT domain in the mixture screen” value (NEDD4-1 HECT domain [2]; ten mixtures of ten fragments, 100 μM each, 4 h) was “weak covalent modifiers”.
Compound `COC(=O)/C=C/CNC(=O)c1c(C)n(C2CCCC2)c2ccc(OC)cc12` [Compound 6] has a kinact [3] of 5.8e-05 s⁻¹ and a KI (inactivation constant) ([3]; read-out: K1 (disruption of NEDD4-1:Ub binding)) of 29.3 µM.
With `COC(=O)/C=C/CNC(=O)c1c(C)n(C)c2ccccc12` [Compound 11, Methyl(E)-4-(1,2-dimethyl-1H-indole-3-carboxamido)but-2-enoate] the “effect of pretreatment on probe 15 labeling of the ~120 kDa band (NEDD4-1)” value [4] was “inactive”.
